Assays:
BRG1 = biological target: T1, BRG1 (Homo sapiens, UniProt P51532); assay: Immunofluorescence assay for BRG1 degradation in SW1573 cells; format: cell-based; details: 20 hours incubation; for DC50: immunofluorescence mean nuclear signal, read-out: BRG1 IF Degradation IC50; for Dmax: SW1573, 20 h, read-out: BRG1 IF Degradation Sinf (%)
T1 construct: either BRM primary antibody (Cell signaling Cat #11966) or BRG primary antibody (Abcam, ab 110641); endogenous in cells; host or cells: SW1573
T1 sequence (P51532 whole entry): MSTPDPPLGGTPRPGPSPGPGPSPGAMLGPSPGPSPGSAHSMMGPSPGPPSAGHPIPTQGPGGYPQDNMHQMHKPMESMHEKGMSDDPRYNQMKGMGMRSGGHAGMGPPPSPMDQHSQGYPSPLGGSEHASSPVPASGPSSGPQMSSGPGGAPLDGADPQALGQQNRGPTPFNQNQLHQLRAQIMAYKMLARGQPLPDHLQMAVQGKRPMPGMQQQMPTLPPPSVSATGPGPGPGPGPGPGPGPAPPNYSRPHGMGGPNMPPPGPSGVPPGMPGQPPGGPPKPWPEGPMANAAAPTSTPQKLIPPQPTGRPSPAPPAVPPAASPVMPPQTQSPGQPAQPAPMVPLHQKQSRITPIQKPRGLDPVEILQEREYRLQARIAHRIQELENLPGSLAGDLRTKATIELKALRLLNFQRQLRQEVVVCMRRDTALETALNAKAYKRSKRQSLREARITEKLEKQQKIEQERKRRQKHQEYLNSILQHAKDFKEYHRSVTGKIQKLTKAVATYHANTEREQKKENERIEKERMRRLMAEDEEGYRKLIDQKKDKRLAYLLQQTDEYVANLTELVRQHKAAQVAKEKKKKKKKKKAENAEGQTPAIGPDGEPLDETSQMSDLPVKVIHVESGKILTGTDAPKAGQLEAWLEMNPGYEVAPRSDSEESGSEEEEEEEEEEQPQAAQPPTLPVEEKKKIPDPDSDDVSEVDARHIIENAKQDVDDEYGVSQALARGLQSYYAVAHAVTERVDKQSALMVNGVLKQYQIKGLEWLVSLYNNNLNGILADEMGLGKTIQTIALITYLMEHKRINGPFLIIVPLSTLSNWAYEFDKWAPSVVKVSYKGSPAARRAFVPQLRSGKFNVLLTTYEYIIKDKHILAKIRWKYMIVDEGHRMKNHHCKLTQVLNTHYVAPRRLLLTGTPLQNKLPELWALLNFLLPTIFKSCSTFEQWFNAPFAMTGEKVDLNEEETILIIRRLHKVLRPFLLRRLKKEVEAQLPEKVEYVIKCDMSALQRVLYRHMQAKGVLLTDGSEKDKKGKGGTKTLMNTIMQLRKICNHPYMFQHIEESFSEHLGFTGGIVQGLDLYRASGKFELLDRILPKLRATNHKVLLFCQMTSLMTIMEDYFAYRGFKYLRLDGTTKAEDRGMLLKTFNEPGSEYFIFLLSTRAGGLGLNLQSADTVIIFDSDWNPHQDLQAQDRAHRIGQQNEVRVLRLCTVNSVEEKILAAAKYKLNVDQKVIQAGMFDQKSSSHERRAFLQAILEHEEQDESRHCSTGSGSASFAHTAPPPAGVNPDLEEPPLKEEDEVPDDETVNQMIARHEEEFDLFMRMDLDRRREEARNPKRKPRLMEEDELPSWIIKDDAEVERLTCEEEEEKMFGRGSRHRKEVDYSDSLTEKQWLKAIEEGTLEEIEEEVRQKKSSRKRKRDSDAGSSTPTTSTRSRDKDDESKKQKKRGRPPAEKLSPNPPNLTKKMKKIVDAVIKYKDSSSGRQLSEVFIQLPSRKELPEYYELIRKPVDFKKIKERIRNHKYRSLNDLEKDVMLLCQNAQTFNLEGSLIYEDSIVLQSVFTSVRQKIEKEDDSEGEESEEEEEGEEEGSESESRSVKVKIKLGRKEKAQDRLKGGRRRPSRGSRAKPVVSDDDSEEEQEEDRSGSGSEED
Procedure: (§1) Example B-2: Immunofluorescence Assay for BRM and BRG1 Degraders
(§2) SW1573 cells were seeded at 3000 cells/well in 384 well plates. The next day, compounds were added using an Echo dispenser. After 20 hours of incubation with compound, cells were fixed with 4% formaldehyde then permeabilized with 0.2% Triton X-100 and blocked with 10% FCS. Fixed and permeabilized cells were treated overnight at 4° C. with either BRM primary antibody (Cell signaling Cat #11966) or BRG primary antibody (Abcam, ab 110641). Finally, cells were treated with fluorescently labeled secondary antibodies for 1 hr (Donkey anti-Rabbit IgG AF488, Life Technologies, A21206) and Hoechst nuclear stain (#H3569) was added for 30 minutes. Cells were washed with PBS in between each step and before imaging on an Opera Phenix microscope (Perkin Elmer). Harmony software (Perking Elmer) was used to quantify the mean nuclear signaling intensity of BRM or BRG signaling per cell in each well. Dose responses were determined from the concentration dependent response of mean nuclear signal intensity with data normalized to a known degrader control. Dose response curves were fit to a floating maximum to allow for calculation of the Dmax.
(§3) Note that, in Table 5, the “Compound Number” corresponds to that used in Table 1. In Table 5, for BRM and BRG1 IF degradation IC50 (μM): A indicates <0.010 μM, B indicates 0.010-0.10 μM, and C indicates >0.10 μM; and for BRM and BRG1 IF degradation Sinf % D indicates 0-−30%, E indicates −30%-−70%, F indicates −71%-−120% and ND indicates the value was not determined.

BRM = BRM (Homo sapiens, UniProt P51531); assay: Immunofluorescence assay for BRM degradation in SW1573 cells; format: cell-based; parameters: treated overnight at 4° C. with either BRM primary antibody (Cell signaling Cat #11966) or BRG primary antibody; endogenous in cells; host or cells: SW1573; details: 20 hours incubation; for DC50: immunofluorescence mean nuclear signal, read-out: BRM IF Degradation IC50; for BRM IF Degradation Sinf (%): normalized to a known degrader control
Chain of BRM (P51531 whole entry): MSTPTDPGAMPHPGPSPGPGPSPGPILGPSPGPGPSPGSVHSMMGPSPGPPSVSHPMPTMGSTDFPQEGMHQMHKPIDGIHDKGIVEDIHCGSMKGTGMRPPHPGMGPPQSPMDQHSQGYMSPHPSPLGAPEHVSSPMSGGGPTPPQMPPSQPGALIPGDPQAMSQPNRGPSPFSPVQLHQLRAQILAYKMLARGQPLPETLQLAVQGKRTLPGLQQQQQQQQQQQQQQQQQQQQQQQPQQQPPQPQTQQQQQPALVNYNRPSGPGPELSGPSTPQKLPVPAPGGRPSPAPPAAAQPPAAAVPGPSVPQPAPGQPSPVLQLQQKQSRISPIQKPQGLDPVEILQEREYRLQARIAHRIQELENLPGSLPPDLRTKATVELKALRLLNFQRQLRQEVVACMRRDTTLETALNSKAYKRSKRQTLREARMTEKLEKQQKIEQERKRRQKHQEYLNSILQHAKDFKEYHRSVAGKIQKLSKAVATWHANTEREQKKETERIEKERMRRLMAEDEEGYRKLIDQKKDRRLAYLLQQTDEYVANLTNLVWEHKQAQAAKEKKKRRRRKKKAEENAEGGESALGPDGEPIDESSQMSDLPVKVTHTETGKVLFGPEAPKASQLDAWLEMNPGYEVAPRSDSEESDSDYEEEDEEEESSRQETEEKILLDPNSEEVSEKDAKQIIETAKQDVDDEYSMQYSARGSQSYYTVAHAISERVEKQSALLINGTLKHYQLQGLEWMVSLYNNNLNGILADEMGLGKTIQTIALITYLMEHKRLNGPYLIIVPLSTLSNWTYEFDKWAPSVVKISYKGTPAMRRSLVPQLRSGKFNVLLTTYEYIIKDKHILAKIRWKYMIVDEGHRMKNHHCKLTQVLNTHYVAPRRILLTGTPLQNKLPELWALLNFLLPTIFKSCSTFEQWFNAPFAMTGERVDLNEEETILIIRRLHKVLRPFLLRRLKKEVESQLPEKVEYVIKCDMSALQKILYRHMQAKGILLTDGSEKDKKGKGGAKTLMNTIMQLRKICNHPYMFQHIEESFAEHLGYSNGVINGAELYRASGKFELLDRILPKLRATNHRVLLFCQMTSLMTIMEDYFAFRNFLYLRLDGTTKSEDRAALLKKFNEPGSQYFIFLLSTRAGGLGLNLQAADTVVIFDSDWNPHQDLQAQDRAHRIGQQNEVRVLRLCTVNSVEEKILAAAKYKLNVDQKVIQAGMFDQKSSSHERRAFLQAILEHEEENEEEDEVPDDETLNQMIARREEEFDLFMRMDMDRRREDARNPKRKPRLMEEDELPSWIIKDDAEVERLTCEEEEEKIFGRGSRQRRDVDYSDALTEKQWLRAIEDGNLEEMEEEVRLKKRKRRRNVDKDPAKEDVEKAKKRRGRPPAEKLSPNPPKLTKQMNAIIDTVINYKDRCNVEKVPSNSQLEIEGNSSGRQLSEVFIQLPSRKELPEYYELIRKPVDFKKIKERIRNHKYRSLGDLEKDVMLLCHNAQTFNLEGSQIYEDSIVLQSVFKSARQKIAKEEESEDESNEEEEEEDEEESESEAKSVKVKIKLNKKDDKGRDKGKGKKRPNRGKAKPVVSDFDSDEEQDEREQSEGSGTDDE
Procedure: as §1, §2, §3

[1] = normalized to a known degrader control

For Nc1nnc(-c2ccccc2O)cc1N1CC2CCC(C1)N2c1ccnc(C#CCN2Cc3cccnc3C2)c1 [Compound 56, 2-[6-amino-5-[8-[2-[3-(5,7-dihydropyrrolo[3,4-b]pyridin-6-yl)prop-1-ynyl]-4-pyridyl]-3,8-diazabicyclo[3.2.1]octan-3-yl]pyridazin-3-yl]phenol], the DC50 (BRG1) was greater than 100 nM, the Dmax (BRG1; [1]) was 0 to 30% and the DC50 (BRM) was 10 to 100 nM. The “BRM IF Degradation Sinf (%)” value (BRM) was “E (E indicates −30%-−70%)”.

For CC1COCCN1CC#Cc1cc(N2C3CCC2CN(c2cc(-c4ccccc4O)nnc2N)C3)ccn1 (stereo not drawn) [Compound 57, 2-[6-amino-5-[8-[2-[3-(3-methylmorpholin-4-yl)prop-1-ynyl]-4-pyridyl]-3,8-diazabicyclo[3.2.1]octan-3-yl]pyridazin-3-yl]phenol], the DC50 (BRG1) was greater than 100 nM, the DC50 (BRM) was 10 to 100 nM and the “BRM IF Degradation Sinf (%)” value (BRM) was “E (E indicates −30%-−70%)”.

Molecule Nc1nnc(-c2ccccc2O)cc1N1CC2CCC(C1)N2c1ccnc(C#CCN2CCCCCC2)c1 [Compound 58, 2-(6-amino-5-(8-(2-(3-(azepan-1-yl)prop-1-yn-1-yl)pyridin-4-yl)-3,8-diazabicyclo[3.2.1]octan-3-yl)pyridazin-3-yl)phenol] has a DC50 (BRG1) of less than 10 nM, a Dmax (BRG1; [1]) of 30 to 70% and a DC50 (BRM) of less than 10 nM. The “BRM IF Degradation Sinf (%)” value (BRM) was “F (F indicates −71%-−120%)”.

Molecule C[C@@H]1CN(CC#Cc2cc(N3C4CCC3CN(c3cc(-c5ccccc5O)nnc3N)C4)ccn2)C[C@H](C)O1 [Compound 59, 2-[6-amino-5-[8-[2-[3-[(2S,6R)-2,6-dimethylmorpholin-4-yl]prop-1-ynyl]-4-pyridyl]-3,8-diazabicyclo[3.2.1]octan-3-yl]pyridazin-3-yl]phenol] has a DC50 (BRG1) of less than 10 nM, a Dmax (BRG1; [1]) of 0 to 30% and a DC50 (BRM) of 10 to 100 nM. For the same molecule, the “BRM IF Degradation Sinf (%)” value (BRM) was “E (E indicates −30%-−70%)”.

Nc1nnc(-c2ccccc2O)cc1N1CC2CCC(C1)N2c1ccnc(C#CCN2C[C@H]3CCCC[C@H]3C2)c1 [Compound 60, 2-[5-[8-[2-[3-[(3aS,7aR)-1,3,3a,4,5,6,7,7a-octahydroisoindol-2-yl]prop-1-ynyl]-4-pyridyl]-3,8-diazabicyclo[3.2.1]octan-3-yl]-6-amino-pyridazin-3-yl]phenol] gave a DC50 (BRG1) of less than 10 nM, a Dmax (BRG1; [1]) of 30 to 70% and a DC50 (BRM) of less than 10 nM. The “BRM IF Degradation Sinf (%)” value (BRM) was “E (E indicates −30%-−70%)”.

In the case of CC1CCCN(CC#Cc2cc(N3C4CCC3CN(c3cc(-c5ccccc5O)nnc3N)C4)ccn2)C1 (stereo not drawn) [Compound 61, 2-[6-amino-5-[8-[2-[3-(3-methyl-1-piperidyl)prop-1-ynyl]-4-pyridyl]-3,8-diazabicyclo[3.2.1]octan-3-yl]pyridazin-3-yl]phenol], the DC50 (BRG1) is reported as less than 10 nM, the Dmax (BRG1; [1]) is reported as 30 to 70% and the DC50 (BRM) is reported as less than 10 nM. For the same molecule, the “BRM IF Degradation Sinf (%)” value (BRM) was “E (E indicates −30%-−70%)”.

Work on CC1(O)CCN(CC#Cc2cc(N3C4CCC3CN(c3cc(-c5ccccc5O)nnc3N)C4)ccn2)C1 (stereo not drawn) [Compound 62, 1-[3-[4-[3-[3-amino-6-(2-hydroxyphenyl)pyridazin-4-yl]-3,8-diazabicyclo[3.2.1]octan-8-yl]-2-pyridyl]prop-2-ynyl]-3-methyl-pyrrolidin-3-ol] yielded a DC50 (BRG1) of less than 10 nM, a Dmax (BRG1; [1]) of 30 to 70% and a DC50 (BRM) of less than 10 nM. The “BRM IF Degradation Sinf (%)” value (BRM) was “E (E indicates −30%-−70%)”.

Molecule Nc1nnc(-c2ccccc2O)cc1N1CC2CCC(C1)N2c1ccnc(C#CCN2CC3CCCC3C2)c1 (stereo not drawn) [Compound 63, 2-[5-[8-[2-[3-(3,3a,4,5,6,6a-hexahydro-1H-cyclopenta[c]pyrrol-2-yl)prop-1-ynyl]-4-pyridyl]-3,8-diazabicyclo[3.2.1]octan-3-yl]-6-amino-pyridazin-3-yl]phenol] has a DC50 (BRG1) of less than 10 nM, a Dmax (BRG1; [1]) of 30 to 70% and a DC50 (BRM) of less than 10 nM. For the same molecule, the “BRM IF Degradation Sinf (%)” value (BRM) was “F (F indicates −71%-−120%)”.

Work on CC[C@H]1COCCN1CC#Cc1cc(N2C3CCC2CN(c2cc(-c4ccccc4O)nnc2N)C3)ccn1 [Compound 64, 2-[6-amino-5-[8-[2-[3-[(3S)-3-ethylmorpholin-4-yl]prop-1-ynyl]-4-pyridyl]-3,8-diazabicyclo[3.2.1]octan-3-yl]pyridazin-3-yl]phenol] yielded a DC50 (BRG1) of 10 to 100 nM, a Dmax (BRG1; [1]) of 0 to 30% and a DC50 (BRM) of 10 to 100 nM. For the same molecule, the “BRM IF Degradation Sinf (%)” value (BRM) was “E (E indicates −30%-−70%)”.

In the case of Nc1nnc(-c2ccccc2O)cc1N1CC2CCC(C1)N2c1ccnc(C#CCN2CCC[C@@H]2CO)c1 [Compound 65, 2-[6-amino-5-[8-[2-[3-[(2R)-2-(hydroxymethyl)pyrrolidin-1-yl]prop-1-ynyl]-4-pyridyl]-3,8-diazabicyclo[3.2.1]octan-3-yl]pyridazin-3-yl]phenol], the DC50 (BRG1) is reported as 10 to 100 nM, the Dmax (BRG1; [1]) is reported as 0 to 30% and the DC50 (BRM) is reported as less than 10 nM. The “BRM IF Degradation Sinf (%)” value (BRM) was “E (E indicates −30%-−70%)”.

Nc1nnc(-c2ccccc2O)cc1N1CC2CCC(C1)N2c1ccnc(C#CCN2CC3(CCCCO3)C2)c1 [Compound 66, 2-[6-amino-5-[8-[2-[3-(5-oxa-2-azaspiro[3.5]nonan-2-yl)prop-1-ynyl]-4-pyridyl]-3,8-diazabicyclo[3.2.1]octan-3-yl]pyridazin-3-yl]phenol] was tested, and the DC50 (BRG1) was 10 to 100 nM, the Dmax (BRG1; [1]) was 30 to 70% and the DC50 (BRM) was less than 10 nM. The “BRM IF Degradation Sinf (%)” value (BRM) was “F (F indicates −71%-−120%)”.

Nc1nnc(-c2ccccc2O)cc1N1CC2CCC(C1)N2c1ccnc(C#CCN2CCN3CCCC3C2)c1 (stereo not drawn) [Compound 67, 2-[5-[8-[2-[3-(3,4,6,7,8,8a-hexahydro-1H-pyrrolo[1,2-a]pyrazin-2-yl)prop-1-ynyl]-4-pyridyl]-3,8-diazabicyclo[3.2.1]octan-3-yl]-6-amino-pyridazin-3-yl]phenol] was tested, and the DC50 (BRG1) was less than 10 nM, the Dmax (BRG1; [1]) was 0 to 30% and the DC50 (BRM) was 10 to 100 nM. For the same molecule, the “BRM IF Degradation Sinf (%)” value (BRM) was “E (E indicates −30%-−70%)”.

With Nc1nnc(-c2ccccc2O)cc1N1CC2CCC(C1)N2c1ccnc(C#CCN2CC3CC3C2)c1 (stereo not drawn) [Compound 68, 2-[6-amino-5-[8-[2-[3-(3-azabicyclo[3.1.0]hexan-3-yl)prop-1-ynyl]-4-pyridyl]-3,8-diazabicyclo[3.2.1]octan-3-yl]pyridazin-3-yl]phenol;] the DC50 (BRG1) was less than 10 nM, the Dmax (BRG1; [1]) was 30 to 70% and the DC50 (BRM) was less than 10 nM. For the same molecule, the “BRM IF Degradation Sinf (%)” value (BRM) was “F (F indicates −71%-−120%)”.

Nc1nnc(-c2ccccc2O)cc1N1CC2CCC(C1)N2c1ccnc(C#CCN2CCC23CCOC3)c1 (stereo not drawn) [Compound 69, 2-[6-amino-5-[8-[2-[3-(7-oxa-1-azaspiro[3.4]octan-1-yl)prop-1-ynyl]-4-pyridyl]-3,8-diazabicyclo[3.2.1]octan-3-yl]pyridazin-3-yl]phenol] was tested, and the DC50 (BRG1) was less than 10 nM, the “BRG1 IF Degradation Sinf (%)” value (BRG1; [1]) was “E (E indicates −30%-−70%)” and the DC50 (BRM) was less than 10 nM. The “BRM IF Degradation Sinf (%)” value (BRM) was “F (F indicates −71%-−120%)”.

Molecule Nc1nnc(-c2ccccc2O)cc1N1CC2CCC(C1)N2c1ccnc(C#CCN2CCCOCC2)c1 [Compound 70, 2-[6-amino-5-[8-[2-[3-(l,4-oxazepan-4-yl)prop-1-ynyl]-4-pyridyl]-3,8-diazabicyclo[3.2.1]octan-3-yl]pyridazin-3-yl]phenol] has a DC50 (BRG1) of less than 10 nM, a Dmax (BRG1; [1]) of 30 to 70% and a DC50 (BRM) of less than 10 nM. The “BRM IF Degradation Sinf (%)” value (BRM) was “E (E indicates −30%-−70%)”.

For Nc1nnc(-c2ccccc2O)cc1N1CC2CCC(C1)N2c1ccnc(C#CCN2CCC(O)CC2)c1 [Compound 71, 1-[3-[4-[3-[3-amino-6-(2-hydroxyphenyl)pyridazin-4-yl]-3,8-diazabicyclo[3.2.1]octan-8-yl]-2-pyridyl]prop-2-ynyl]piperidin-4-ol], the DC50 (BRG1) was less than 10 nM, the Dmax (BRG1; [1]) was 30 to 70% and the DC50 (BRM) was 10 to 100 nM. The “BRM IF Degradation Sinf (%)” value (BRM) was “E (E indicates −30%-−70%)”.

In the case of Nc1nnc(-c2ccccc2O)cc1N1CC2CCC(C1)N2c1ccnc(C#CCN2CCn3cncc3C2)c1 [Compound 72, 2-[6-amino-5-[8-[2-[3-(6,8-dihydro-5H-imidazo[1,5-a]pyrazin-7-yl)prop-1-ynyl]-4-pyridyl]-3,8-diazabicyclo[3.2.1]octan-3-yl]pyridazin-3-yl]phenol], the DC50 (BRG1) is reported as greater than 100 nM, the DC50 (BRM) is reported as 10 to 100 nM and the “BRM IF Degradation Sinf (%)” value (BRM) is reported as “E (E indicates −30%-−70%)”.

Nc1nnc(-c2ccccc2O)cc1N1CC2CCC(C1)N2c1ccnc(C#CCN2CCOCC23CC3)c1 [Compound 73, 2-[6-amino-5-[8-[2-[3-(7-oxa-4-azaspiro[2.5]octan-4-yl)prop-1-ynyl]-4-pyridyl]-3,8-diazabicyclo[3.2.1]octan-3-yl]pyridazin-3-yl]phenol] was tested, and the DC50 (BRG1) was greater than 100 nM, the DC50 (BRM) was greater than 100 nM and the “BRM IF Degradation Sinf (%)” value (BRM) was “E (E indicates −30%-−70%)”.

Nc1nnc(-c2ccccc2O)cc1N1CC2CCC(C1)N2c1ccnc(C#CCN2CCOC3CC32)c1 (stereo not drawn) [Compound 74, 2-[6-amino-5-[8-[2-[3-(2-oxa-5-azabicyclo[4.1.0]heptan-5-yl)prop-1-ynyl]-4-pyridyl]-3,8-diazabicyclo[3.2.1]octan-3-yl]pyridazin-3-yl]phenol] was tested, and the DC50 (BRG1) was greater than 100 nM, the DC50 (BRM) was 10 to 100 nM and the “BRM IF Degradation Sinf (%)” value (BRM) was “E (E indicates −30%-−70%)”.
